Measurements as given in patent publication US20150037285A1, “METHODS FOR EFFICIENT TRANSFER OF VIABLE AND BIOACTIVE MICROBIOTA” (NEW YORK UNIVERSITY, priority 2013, published 2015).

Test system: C57BL/6J mice
Assay: Sub-therapeutic antibiotic treatment (STAT) in drinking water, body composition versus Control drinking water
Type: in vivo
Conditions: STAT penicillin versus Control drinking water
From the text: C57BL/6J (Jackson Labs, Bar Harbor Me.) mice either received no antibiotics (control) or continuous subtherapeutic antibiotic treatment (STAT) with penicillin in their drinking water. Mice were weaned at 4 weeks onto normal chow (13.2% fat, 5053 PicoLab Rodent Diet 20, LabDiet, Brentwood, Mo.) then changed to a high fat diet (45% kcal from fat, D12451, Research Diets, New Brunswick, N.J.) at 6 weeks of life. At 18 weeks of age, the three animals with weight at or closest to the median were selected as cecal content donors from each group (Control, n=7; STAT, n=8). Donor mice were humanely euthanized, and the proximal ⅓ of the cecum was aseptically removed and immediately (less than 1 minute) placed in reduced (no oxygen), sterile liquid dental transport media (Anaerobe Systems, Morgan Hill Calif.). The cecal samples in anaerobic transport media were brought into an anaerobic chamber within an hour of collection (Sheldon, Cornelius Oreg.). The three cecal samples from each group (STAT or Control) were pooled, and reduced, sterile saline was added to a final volume of 8 mL, of which 3 mL was used for microbiota transfer. To maintain viability of anaerobic organisms, vials containing the inoculum were not opened. […]
Mice were fed normal chow, then switched to high fat diet at 6 weeks of age. […] Microbiota recipient mice were given a high fat diet and monitored for 5 weeks. […]

In the case of penicillin, the Body composition is reported as “changes in body composition”.
